Data published in article PMC9628809, “Icaritin Preparation from Icariin by a Special Epimedium Flavonoid-Glycosidase from Aspergillus sp.y848 Strain” (Journal of Microbiology and Biotechnology, 2022).

Tested on: T1, Epimedium flavonoid-glycosidase
T1 construct: native secreted enzyme purified from culture supernatant (DEAE-cellulose DE-52)
Assay: TLC scanning of substrate and products, Lineweaver-Burk plot
Format: biochemical, Aspergillus sp. y848
Details: 0.02 M acetate buffer pH 5.0, 40°C; icariin 12.5-50 mM

- Km: 15.6 mM
Compound: COc1ccc(-c2oc3c(CC=C(C)C)c(O[C@@H]4O[C@H](CO)[C@@H](O)[C@H](O)[C@H]4O)cc(O)c3c(=O)c2O[C@@H]2O[C@@H](C)[C@H](O)[C@@H](O)[C@H]2O)cc1 [icariin]
